Target: T1, protein farnesyltransferase (Rattus norvegicus, UniProt Q02293+Q04631)
T1 construct: Rat brain protein farnesyltransferase activity is measured; from tissue; host or cells: rat brain; purified according to Reiss et al., Cell 62:81-88 (1990), steps one through three
Assay: in vitro inhibition of protein farnesyltransferase (scintillation proximity assay, biotin-K Ras B fragment)
Type: biochemical
Settings: for inhibition at 1 µM: read-out: % inhibition of farnesyltransferase; for inhibition at 10 µM: at 1 × 10^-5 M
Method in brief: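 Scintillation proximity read-out of farnesylation, using a biotinylated K Ras B fragment (0.1 mM final) in place of biotin-lamin. Enzyme purified from rat brain; results given as % inhibition.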

inhibition at 1 µM (at 1 × 10^-6 M) [%]	inhibition at 10 µM [%]	Compound	further results
68	–	COc1ccccc1CNCc1ccc(C(=O)N[C@@H](CCSC)C(=O)O)c(-c2ccccc2)c1 [Example 650]	–
41	–	COc1cccc(CNCc2ccc(C(=O)N[C@@H](CCSC)C(=O)O)c(-c3ccccc3)c2)c1 [Example 652]	–
62	–	CSCC[C@H](NC(=O)c1ccc(CNCc2ccc(N)cc2)cc1-c1ccccc1)C(=O)O [Example 653]	–
45	–	CSCC[C@H](NC(=O)c1ccc(CNCC(O)c2cccc(O)c2)cc1-c1ccccc1)C(=O)O (some centres unmarked) [Example 661]	–
68	–	CSCC[C@H](NC(=O)c1ccc(CNC(CO)Cc2ccc(Cl)cc2)cc1-c1ccccc1)C(=O)O (some centres unmarked) [Example 662]	–
83	–	CSCC[C@H](NC(=O)c1ccc(CNCCSc2ccccc2)cc1-c1ccccc1)C(=O)O [Example 667]	–
36	–	CSCC[C@H](NC(=O)c1ccc(CNc2ccccc2CCO)cc1-c1ccccc1)C(=O)O [Example 671]	–
–	48	CSCC[C@H](NC(=O)c1ccc(CNc2ccccc2N(C)C)cc1-c1ccccc1)C(=O)O [Example 672]	–
59	–	CSCC[C@H](NC(=O)c1ccc(CNc2ccccc2N2CCCCC2)cc1-c1ccccc1)C(=O)O [Example 673]	–
–	40	CSCC[C@H](NC(=O)c1ccc(CNc2cccc(C)c2)cc1-c1ccccc1)C(=O)O [Example 674]	–
–	76	CSCC[C@H](NC(=O)c1ccc(CNc2cccc(O)c2)cc1-c1ccccc1)C(=O)O [Example 676]	–
37	–	CSCC[C@H](NC(=O)c1ccc(CNc2cccc(I)c2)cc1-c1ccccc1)C(=O)O [Example 677]	–
–	58	CSCC[C@H](NC(=O)c1ccc(CNc2cccc(CO)c2)cc1-c1ccccc1)C(=O)O [Example 680]	–
31	–	CSCC[C@H](NC(=O)c1ccc(CNc2cccc(C(N)=O)c2)cc1-c1ccccc1)C(=O)O [Example 682]	–
–	57	CSCC[C@H](NC(=O)c1ccc(CNc2cccc(N(C)C)c2)cc1-c1ccccc1)C(=O)O [Example 683]	–
–	48	CSCC[C@H](NC(=O)c1ccc(CNc2cccc(CC(=O)O)c2)cc1-c1ccccc1)C(=O)O [Example 684]	–
–	55	CSCC[C@H](NC(=O)c1ccc(CNc2cccc(CCC(=O)O)c2)cc1-c1ccccc1)C(=O)O [Example 685]	–

inhibition at 1 µM (at 1 × 10^-6 M) [%]	inhibition at 10 µM [%]	Compound	further results
–	48	CSCC[C@H](NC(=O)c1ccc(CNc2cccc(Oc3ccccc3)c2)cc1-c1ccccc1)C(=O)O [Example 686]	–
–	78	CSCC[C@H](NC(=O)c1ccc(CNc2ccc(F)cc2)cc1-c1ccccc1)C(=O)O [Example 687]	–
–	71	CSCC[C@H](NC(=O)c1ccc(CNc2ccc(I)cc2)cc1-c1ccccc1)C(=O)O [Example 688]	–
–	73	CSCC[C@H](NC(=O)c1ccc(CNc2ccc(O)cc2)cc1-c1ccccc1)C(=O)O [Example 689]	–
–	61	COc1ccc(NCc2ccc(C(=O)N[C@@H](CCSC)C(=O)O)c(-c3ccccc3)c2)cc1 [Example 690]	–
–	74	CSCC[C@H](NC(=O)c1ccc(CNc2ccc(C(C)C)cc2)cc1-c1ccccc1)C(=O)O [Example 692]	–
45	–	CSCC[C@H](NC(=O)c1ccc(CNc2ccc(CCO)cc2)cc1-c1ccccc1)C(=O)O [Example 694]	–
–	68	CSCC[C@H](NC(=O)c1ccc(CNc2ccc(-c3ccccc3)cc2)cc1-c1ccccc1)C(=O)O [Example 700]	–
–	64	CSCC[C@H](NC(=O)c1ccc(CNc2ccc(Oc3ccccc3)cc2)cc1-c1ccccc1)C(=O)O [Example 701]	–
–	79	CSCC[C@H](NC(=O)c1ccc(CNc2ccc(C(=O)c3ccccc3)cc2)cc1-c1ccccc1)C(=O)O [Example 702]	–
–	67	CSCC[C@H](NC(=O)c1ccc(CNc2ccc(C)c(C)c2)cc1-c1ccccc1)C(=O)O [Example 704]	–
–	76	CSCC[C@H](NC(=O)c1ccc(CNc2ccc3ncccc3c2)cc1-c1ccccc1)C(=O)O [Example 708]	–
–	40	CSCC[C@H](NC(=O)c1ccc(CNC(CO)C(O)c2ccccc2)cc1-c1ccccc1)C(=O)O (some centres unmarked) [Example 713]	–
–	56	CSCC[C@H](NC(=O)c1ccc(CNC(CO)Cc2ccccc2)cc1-c1ccccc1)C(=O)O (some centres unmarked) [Example 714]	–
–	40	CSCC[C@H](NC(=O)c1ccc(CNCCCCc2ccccc2)cc1-c1ccccc1)C(=O)O [Example 718]	–
95	–	CSCC[C@H](NC(=O)c1ccc(CN[C@H](CO)Cc2ccccc2)cc1-c1ccccc1C)C(=O)O [Example 727]	–

Second part, the compound before the results:

Compound	inhibition at 1 µM (at 1 × 10^-6 M) [%]	inhibition at 10 µM [%]	further results
COc1ccc(CNCc2ccc(C(=O)N[C@@H](CCSC)C(=O)O)c(-c3ccccc3)c2)c(OC)c1 [Example 655]	35	–	–
CSCCC(NC(=O)c1ccc(CNC(CO)c2ccccc2)cc1-c1ccccc1)C(=O)O (centres unmarked) [Example 657]	–	–	% inhibition of farnesyltransferase (at 1 × 10^-6 M): 32%
CSCCC(NC(=O)c1ccc(CNC(CO)c2ccccc2)cc1-c1ccccc1)C(=O)O (centres unmarked) [Example 658]	–	–	% inhibition of farnesyltransferase (at 1 × 10^-6 M): 73%
COc1cc2c(cc1OC)C(CNCc1ccc(C(=O)N[C@@H](CCSC)C(=O)O)c(-c3ccccc3)c1)=CC(C1CCCCC1)C2 (some centres unmarked) [Example 659]	–	55	–
CSCC[C@H](NC(=O)c1ccc(CNCCC2CCCCC2)cc1-c1ccccc1)C(=O)O [Example 663]	–	43	–
C=C[C@@H](CC1CCCCC1)NCc1ccc(C(=O)N[C@@H](CCSC)C(=O)O)c(-c2ccccc2)c1 [Example 664]	–	75	–
CSCC[C@H](NC(=O)c1ccc(CN[C@@H](/C=C\CC(C)C)CC2CCCCC2)cc1-c1ccccc1)C(=O)O [Example 665]	55	–	–
CSCC[C@H](NC(=O)c1ccc(CN[C@H](/C=C\CC(C)C)CC2CCCCC2)cc1-c1ccccc1)C(=O)O [Example 666]	82	–	–
CSCC[C@H](NC(=O)c1ccc(CNc2cccc(OC(F)(F)F)c2)cc1-c1ccccc1)C(=O)O [Example 678]	–	73	–
CSCC[C@H](NC(=O)c1ccc(CNc2ccc(OC(F)(F)F)cc2)cc1-c1ccccc1)C(=O)O [Example 691]	34	–	–
CSCC[C@H](NC(=O)c1ccc(CNc2ccc(C(O)(C(F)(F)F)C(F)(F)F)cc2)cc1-c1ccccc1)C(=O)O [Example 693]	53	–	–
CSCC[C@H](NC(=O)c1ccc(CNc2ccc(N3CCCCC3)cc2)cc1-c1ccccc1)C(=O)O [Example 697]	39	–	–
CSCC[C@H](NC(=O)c1ccc(CNc2ccc(C3CCCCC3)cc2)cc1-c1ccccc1)C(=O)O [Example 699]	–	74	–
CSCC[C@H](NC(=O)c1ccc(CNc2ccc(-c3nc4ccccc4s3)cc2)cc1-c1ccccc1)C(=O)O [Example 703]	40	–	–
CSCC[C@H](NC(=O)c1ccc(CNc2ccc3c(c2)CCC3)cc1-c1ccccc1)C(=O)O [Example 705]	–	72	–
CSCC[C@H](NC(=O)c1ccc(CNc2ccc3c(c2)Cc2ccccc2-3)cc1-c1ccccc1)C(=O)O [Example 706]	–	53	–
CSCC[C@H](NC(=O)c1ccc(CNc2cc(C)cc(C)c2)cc1-c1ccccc1)C(=O)O [Example 709]	–	55	–
CSCC[C@H](NC(=O)c1ccc(CNc2cc(C(=O)O)cc(C(=O)O)c2)cc1-c1ccccc1)C(=O)O [Example 710]	–	45	–

Compound	inhibition at 1 µM (at 1 × 10^-6 M) [%]	inhibition at 10 µM [%]	further results
CCN(Cc1ccc(C(=O)N[C@@H](CCSC)C(=O)O)c(-c2ccccc2)c1)Cc1cc([N+](=O)[O-])ccc1O [Example 711]	–	46	–
CSCC[C@H](NC(=O)c1ccc(CNCc2cc(Cl)cc(Cl)c2)cc1-c1ccccc1)C(=O)O [Example 712]	–	69	–
CSCC[C@H](NC(=O)c1ccc(CN[C@H](CC2CCCCC2)[C@H](O)[C@H](O)CC(C)C)cc1-c1ccccc1)C(=O)O [Example 715]	–	67	–
CSCC[C@H](NC(=O)c1ccc(CN[C@@H](CC2CCCCC2)[C@@H](O)[C@@H](O)CC(C)C)cc1-c1ccccc1)C(=O)O [Example 716]	69	–	–
CSCC[C@H](NC(=O)c1ccc(CN(C)CC(O)CO)cc1-c1ccccc1C)C(=O)O (some centres unmarked) [Example 719]	90	–	–
CCc1nnc(NCc2ccc(C(=O)N[C@@H](CCSC)C(=O)O)c(-c3ccccc3C)c2)s1 [Example 723]	87	–	–
COC(=O)c1cscc1NCc1ccc(C(=O)N[C@@H](CCSC)C(=O)O)c(-c2ccccc2C)c1 [Example 724]	87	–	–
CSCC[C@H](NC(=O)c1ccc(CNc2ccc(S(=O)(=O)Nc3onc(C)c3C)cc2)cc1-c1ccccc1C)C(=O)O [Example 726]	81	–	–
CSCC[C@H](NC(=O)c1ccc(CSC2=NCCS2)cc1-c1ccccc1C)C(=O)O [Example 730]	–	–	% inhibition of farnesyltransferase (at 1 × 10^-7 M): 96%
CSCC[C@H](NC(=O)c1ccc(CSc2nc3ccccc3[nH]2)cc1-c1ccccc1C)C(=O)O [Example 732]	–	–	% inhibition of farnesyltransferase (at 1 × 10^-7 M): 84%
CSCC[C@H](NC(=O)c1ccc(CSc2nc3cc(C)ccc3[nH]2)cc1-c1ccccc1C)C(=O)O [Example 733]	–	–	% inhibition of farnesyltransferase (at 1 × 10^-7 M): 60%
CSCC[C@H](NC(=O)c1ccc(CSc2nnc(N)s2)cc1-c1ccccc1C)C(=O)O [Example 734]	–	–	% inhibition of farnesyltransferase (at 1 × 10^-7 M): 49%
CSCC[C@H](NC(=O)c1ccc(CSc2nnc[nH]2)cc1-c1ccccc1C)C(=O)O [Example 735]	–	–	% inhibition of farnesyltransferase (at 1 × 10^-7 M): 96%
CSCC[C@H](NC(=O)c1ccc(CSc2ccccc2C(C)C)cc1-c1ccccc1C)C(=O)O [Example 739]	–	–	% inhibition of farnesyltransferase (at 1 × 10^-7 M): 83%
CSCC[C@H](NC(=O)c1ccc(CSc2ccc(F)cc2)cc1-c1ccccc1C)C(=O)O [Example 740]	–	–	% inhibition of farnesyltransferase (at 1 × 10^-7 M): 94%
CSCC[C@H](NC(=O)c1ccc(CSc2ccc(C)cc2C)cc1-c1ccccc1C)C(=O)O [Example 741]	–	–	% inhibition of farnesyltransferase (at 1 × 10^-7 M): 89%
CSCC[C@H](NC(=O)c1ccc(CSc2nc(C)cc(C)n2)cc1-c1ccccc1C)C(=O)O [Example 743]	–	–	% inhibition of farnesyltransferase (at 1 × 10^-7 M): 51%
